# Measurements: patent US11142718B2, “Ecofriendly and biodegradable lubricant formulation and process for preparation thereof” (Council of Scientific & Industrial Research, priority 2017, dated 2021)
# Read-outs that look alike come from different tables or passages of the source.
# How the values were obtained:
# Assay type in all cases: physicochemical
# [1] = Pour point (IS: 1448: P-10)
# Method: (§1) The synthesized products have the following characteristics: • a. The prepared esters have viscosity grade of 31.0 to 47.0 cSt at 40° C. as per P-25 matching the specification and a high viscosity index of 161-171 as per P-56. • b. […] The biodegradability of the synthesized ester is above 95% as per the standard ASTM D: 5864 test method for biodegradability. • e. The products are non toxic to the sewage bacteria. • f. The conventional additives which are suitable for mineral oils are also giving positive response with this ester. • g. The products have good anti wear properties with wear scar diameter of 0.350 mm at 40 kgf load as per ASTM D: 4172B. • h. The products have excellent load bearing capacity. • i. The products have good lubricity. • j. The products have good oxidative stability. • k. The products have no evaporation loss. • l. The products have good adherence to metal characteristics. • m. The products have good corrosion inhibiting characteristics. • n. […] Synthetic biodegradable polyol complex ester lubricating oils have excellent biodegradability, a high viscosity index and a low pour point, a high flash point, very good lubricity, good oxidative stability and property of preventing corrosion and suitable for use with sealing materials. • p.
# Viscosity index (P-56) = assay: Viscosity index (P-56)
# Method: (§2) In an embodiment of the present invention the polyol complex ester base oils may be selected from the viscosity range of 34.26 to 43.54 cSt at 40° C. as per IS: 1448: P-25 matching the specification and a high viscosity index of 161-171 as per P-56.
# as §1
# [2] = Kinematic viscosity (IS: 1448: P-25); conditions: for viscosity at 100° C. / viscosity at 0° C.: in cSt
# [3] = Kinematic viscosity (IS: 1448: P-25); conditions: for viscosity at 40° C.: in cSt; for KV in cst at 40° C.: P-25
# Method: as §2, §1
# Evaporation loss (P-136) = assay: Evaporation loss (P-136)
# [4] = Adherence to metal (drop diameter change, contact angle); conditions: polished mild steel substrates
# Acidity (P-2) = assay: Acidity (P-2)
# Density (ASTM D: 4052) = assay: Density (ASTM D: 4052)
Structure (SMILES),pour point [1] [°C],viscosity index (Viscosity index (P-56)),viscosity at 100° C. [2],viscosity at 40° C. [3],"Evaporation loss, % by mass (Evaporation loss (P-136)) [% by mass]",pour point ([1]; P-10) [°C],viscosity index (Viscosity index (P-56); P-56),KV in cst at 0° C. [2] [cst],viscosity at 0° C. [2],KV in cst at −35° C. [2] [cst],KV in cst at 40° C. [3] [cst],"Adherence to metal, change in diameter of the drop, percent [4] [%]","Acidity, Inorganic (Acidity (P-2))","Acidity, Organic (Acidity (P-2))","Density, d4^20 (Density (ASTM D: 4052)) [gm/ml]"
"CCCCC(CC)COC(=O)CCCCCCCC(=O)OCC(C)(C)COC(=O)CCCCCCCC(=O)OCC(CC)CCCC (centres unmarked) [DMAZEH, 2,2-dimethyl 1,3-propane diazelaic 2 ethyl 1 hexanoate]",> −27,169,5.60,25.44,,,,,,,,,,,
"CCCCC(CC)COC(=O)CCCCCCCC(=O)OCC(CC)(CC)COC(=O)CCCCCCCC(=O)OCC(CC)CCCC (centres unmarked) [DEAZEH, 2,2-diethyl 1,3-propane diazelaic 2 ethyl 1 hexanoate]",> −39,171,,47.0,0.42,<−39,171,408.23,408.23,>5000,47.00,13,Nil,0.0635 mg KoH/gm of oil,0.9627
"CCCCC(CC)COC(=O)CCCCCCCCC(=O)OCC(C)(C)COC(=O)CCCCCCCCC(=O)OCC(CC)CCCC (centres unmarked) [DMSEH, 2,2-dimethyl 1,3-propane disebacid 2 ethyl 1 hexanoate]",> −24,172,14.8,90.33,,,,,,,,,,,
"CCCCC(CC)COC(=O)CCCCC(=O)OCC(CC)(COC(=O)CCCCC(=O)OCC(CC)CCCC)COC(=O)CCCCC(=O)OCC(CC)CCCC (centres unmarked) [THADEH, 1,1,1-trishydroxymethyl propane triadipic 2 ethyl 1 hexanoate]",> −15,196,10.17,26.51,,,,,,,,,,,
"CCCCC(CC)COC(=O)CCCCCCCCC(=O)OCC(CC)(CC)COC(=O)CCCCCCCCC(=O)OCC(CC)CCCC (centres unmarked) [DESEH, 2,2-diethyl 1,3-propane disebacic 2 ethyl 1 hexanoate]",> −39,165,7.24,36.8,,,,,,,,,,,
"CCCCC(CC)COC(=O)CCCCC(=O)OCC(C)(C)COC(=O)CCCCC(=O)OCC(CC)CCCC (centres unmarked) [DMADEH, 2,2-dimethyl 1,3-propane di adipic 2 ethyl 1 hexanoate]",> −39,161,,31.00,0.48,<−39,161,323.98,323.98,>4000,31.00,12,Nil,0.0817 mg KoH/gm of oil,0.9915
"CCCCC(CC)COC(=O)CCCCC(=O)OCC(CC)(CC)COC(=O)CCCCC(=O)OCC(CC)CCCC (centres unmarked) [DEADEH, 2,2-diethyl 1,3-propane di adipic 2 ethyl 1 hexanoate]",> −24,138,12.83,91.3,,,,,,,,,,,
"CCCCC(CC)COC(=O)CCCCCCCC(=O)OCC(CC)(COC(=O)CCCCCCCC(=O)OCC(CC)CCCC)COC(=O)CCCCCCCC(=O)OCC(CC)CCCC (centres unmarked) [THAZEH, 1,1,1-trishydroxymethyl propane triazilaic 2 ethyl 1 hexanoate]",> −27,165,8.53,46.07,,,,,,,,,,,
"CCCCC(CC)COC(=O)CCCCCCCCC(=O)OCC(CC)(COC(=O)CCCCCCCCC(=O)OCC(CC)CCCC)COC(=O)CCCCCCCCC(=O)OCC(CC)CCCC (centres unmarked) [THSEH, 1,1,1-trishydroxymethyl propane trisebacic 2 ethyl 1 hexanoate]",> −24,196,16.87,111,,,,,,,,,,,
